The values below are quoted from earlier work in article PMC4984525 (Cancer, 2011).

The data set deals with patients with resistant ovarian cancer. As to conditions: preliminary results of a Phase 2 trial; cited from earlier work.

SMILES strings stand for the structures.

Take `Cc1ccc(C(=O)N(CCCN)[C@@H](c2nc3cc(Cl)ccc3c(=O)n2Cc2ccccc2)C(C)C)cc1` [ispinesib]: the clinical activity result was “has clinical activity”.
